Experimental data published in patent US4530931A, “8-Quinoline carbanilates for the inhibition of lipolysis” (priority 1984, dated 1985).

Columns and labels:
[1] = test system: Canine cardiac lipases; assay: Myocardial lipase assay; type: biochemical; settings: for Lipase % Inh. at 100 μM: 100 μM compound, tested in duplicate; for IC50: triolein emulsion, Tris pH 6.8, read-out: Lipase I50
Method: All compounds were dissolved in DMSO (final concentration 3.0%) and tested in duplicate at a concentration of 100 μM. Canine cardiac lipases were obtained by extracting washed heart membranes with buffer plus heparine and a small amount of Triton X-100 detergent. Because these enzymes are only active at an oil-water interface, the enzyme reaction is run in an oil-water emulsion that contains triolein substrate, Tris buffer (50mM, pH 6.8) and a small amount of bovine serum albumin (0.5%) added to stabilize the emulsion. A small amount of tritiated triolein was added to the unlabelled triolein substrate. Tritium-labelled oleic acid released by the lipases was extracted into hexane, separated from unreacted triolein and counted in a scintillation counter. Inhibitory agents reduce the amount of radioactivity appearing in the free fatty acid fraction isolated in the extraction procedure.

[2] = test system: rat adipocyte lipolysis; assay: Rat adipocyte assay (epinephrine-stimulated lipolysis, glycerol release); type: cell-based; settings: for IC50: epinephrine 3 μM plus methylisobutylxanthine 10 μM, 1 hour at 37° C., read-out: Adipocyte I50; for Adipocyte % Inhib. at 3 μM: 3 μM compound; for inhibition at 100 µM: read-out: Adipocyte % Inhib. at 100 μM
Method: Abdominal fat pads were removed from male rats weighing 200-250 grams and placed in Krebs-bicarbonate buffer gassed with 95% O2 /5% CO2. The fat pads were digested with collagenase for 1 hour at 37° C., washed twice with Krebs-bicarbonate buffer and distributed among a set of 20 ml plastic counting vials. Two such vials received only buffer and cells (4 ml) but no agonists or antagonists. The remaining vials received epinephrine (3 μM) plus the phosphodiesterase inhibitor methylisobutylxanthine (10 μM). Test compounds were dissolved in DMSO or water to a concentration of […] and […] was added to the buffer plus cells in the counting vials. The final compound concentration for routine screening was 200 μM (final concentration of DMSO=1%).
The cells were incubated for 1 hour at 37° C. under a 95% O2 /5% CO2 atmosphere. The incubation was stopped by placing the vials in crushed ice. The cells and medium were transferred to test tubes, centrifuged and the cell layer removed by aspiration. The aqueous phase was assayed for glycerol using the enzyme glycerol dehydrogenase.
The glycerol dehydrogenase assay for glycerol depends on the enzyme catalyzed conversion of glycerol to glyceraldehyde and NAD to NADH. The assay can detect as little as 5-10 nanomoles of glycerol. The aqueous phase, following removal of cells, usually contained about 50 to 80 nanomoles of glycerol per 300 μl of assayed sample if no inhibitory activity was present. Samples from the control tubes (no agonist) usually contained 0-5 nanomoles of glycerol per 300 μl of sample.

[3] = Rattus norvegicus, Adipocyte, 100 μM compound

Row | Molecule | Lipase % Inh. at 100 μM [1] [%] | Adipocyte % Inhib. at 3 μM [2] [%] | other results
1 | 2-methoxyphenyl-8-quinoyl carbamate [No. 5] | 72 |  | IC50 [2]: 5.8 µM
2 | 2-methyl-8-quinolyl carbanilate [No. 19] |  |  | IC50 [1]: 48 µM; IC50 [2]: 10 µM
3 | 2-methyl-8-quinolyl-4-bromo carbanilate [No. 21] | 69 | 28 | 
4 | 2-methyl-8-quinolyl-4-methoxy carbanilate [No. 20] |  | 5 | IC50 [1]: 80 µM
5 | 4-Methoxyphenyl-8-quinolyl Urea [No. 6] | 70 |  | Adipocyte % Inhib. at 100 μM ([2]; 100 μM compound): 98%
6 | 5,7-dichloro-8-quinolyl carbanilate [No. 24] | 68 |  | IC50 [2]: 0.2 µM
7 | 5-chloro-8-quinolyl carbanilate [No. 22] | 68 | 29 | 
8 | 8-(4-Methoxyphenylcarbamoyl)-quinolin)-5-sulfonic acid, Triethylamine [No. 23] | 76 |  | IC50 [2]: 35 µM
9 | 8-Quinolyl-4-methoxy Acetanilide [No. 25] | 74 |  | IC50 [2]: 35 µM
10 | 8-quinolyl-2,4-dimethoxy carbanilate [No. 15] | 64 | 84 | 
11 | 8-quinolyl-2,5-dimethoxy carbanilate [No. 16] | 7 | 40 | 
12 | 8-quinolyl-2-chloro carbanilate [No. 10] |  |  | IC50 [1]: 200 µM; Adipocyte % Inhib. at 200 μM ([2]; 200 μM compound): 44%
13 | 8-quinolyl-2-methyl carbanilate [No. 13] | 1 |  | 
14 | 8-quinolyl-3-chloro carbanilate [No. 9] |  |  | IC50 [1]: 7300 µM; Adipocyte % Inhib. at 200 μM ([2]; 200 μM compound): 4%
15 | 8-quinolyl-3-methyl carbanilate [No. 12] | 41 | 5 | 
16 | 8-quinolyl-3-trifluoromethyl carbanilate [No. 14] | 63 | 76 | 

Row | Molecule | Lipase % Inh. at 100 μM [1] [%] | Adipocyte % Inhib. at 3 μM [2] [%] | other results
17 | 8-quinolyl-4-bromo carbanilate [No. 17] | 56 | 7 | 
18 | 8-quinolyl-4-chloro carbanilate [No. 8] |  |  | IC50 [1]: 20 µM; IC50 [2]: 30 µM
19 | 8-quinolyl-4-methoxy benzyl carbamate [No. 26] | 68 | 5 | 
20 | 8-quinolyl-4-methoxy phenethyl carbamate [No. 27] | 69 | 4 | 
21 | 8-quinolyl-4-methyl carbanilate [No. 11] | 58 | 52 | 
22 | 8-quinolyl-carbanilate [No. 18] | 65 |  | IC50 [2]: 0.2 µM
23 | 8-quninolyl-4-carbethoxy carbanilate [No. 7] | 75 |  | Adipocyte % Inhib. at 30 μM ([2]; 30 μM compound): 3%
24 | COc1ccc(NC(=O)Oc2cccc3cccnc23)cc1 [No. 1, 8-Quinolyl-4-Methoxy Carbanilate] |  |  | IC50 [1]: 17 µM
25 | COc1ccccc1NC(=O)Oc1cccc2cccnc12 [No. 2, 8-quinolyl-2-methoxy carbanilate] |  |  | IC50 [1]: 40 µM
26 | COc1cccc(NC(=O)Oc2cccc3cccnc23)c1 [No. 3, 8-quinolyl-3-methoxy carbanilate] |  |  | IC50 [1]: 18 µM
27 | COc1ccc(CC(=O)Oc2cccc3cccnc23)cc1 [No. 30, 8-Quinoloyl-4-methoxyphenylAcetate] |  |  | inhibition at 100 µM [2, 3]: 74%
28 | COc1ccc(C(=O)Oc2cccc3cccnc23)cc1 [No. 31, 8-quinolyl-4-methoxy benzoate] | 13 |  | inhibition at 200 µM ([2]; Rattus norvegicus, Adipocyte, 200 μM compound, read-out: Adipocyte % Inhib. at 200 μM): 49%
29 | COc1ccc(NC(=O)COc2cccc3cccnc23)cc1 [compound 25] | 7 |  | inhibition at 100 µM [2, 3]: 26%
30 | (R)8-quinolyl alpha-methyl benzyl carbamate [No. 29] | 56 |  | Adipocyte % Inhib. at 200 μM ([2]; 200 μM compound): 28%
31 | (S)8-quinolyl alpha-methyl benzyl carbamate [No. 28] | 83 |  | Adipocyte % Inhib. at 200 μM ([2]; 200 μM compound): 14%
